Molecules are shown by their SMILES. Entries after “also recorded” stand apart in the source; their conditions may differ.

The test system of data set [1] is Wnt target genes BIRC5/Survivin and EphB2. Put plainly: Quantitative RT-PCR of Wnt target genes in human glioma cell lines. In kind it is cell-based. As to the method:
FIG. 15. Expression of target genes post-ICG-001 treatment (0-10 μM) by RT-PCR using (A-C) mouse Survivin in GL261-IL13, GL261, and K-luc cells. (D) Survivin in PBT147 human glioma cells. (E, F) Luciferase reporter assay indicating downregulation of Survivin/BIRC5 in PBT017 and PBT030 cell lines.
FIG. 16 is a table showing the expression of the target genes survivin/BIRC5 post-ICG-001 treatment ([…]) as detected by RT-PCR and Luciferase Reporter Assay.
ICG-001 differentially affects the expression of the Wnt target genes BIRC5/Survivin and EphB2 in vitro. […] The effects of ICG-001 on Wnt/CBP/β-catenin signaling were further confirmed using a Survivin-luciferase reporter assay (FIG. 15). ICG-001's selective effects on the expression of Survivin and EphB2 may serve as indicators of ICG-001 on target tissue activity in vivo (FIG. 16) and a readout for pharmacokinetics/pharmacodynamics (PK/PD) as used previously in clinical trials with the second-generation CBP/β-catenin specific antagonist PRI-724 (Anthony et al. 2013).

For data set [2], the system named is PBT147 and PBT030 metabolic pathways. As to the kind of experiment: NanoString nCounter human metabolic panel of PBT147 and PBT030 cells. The class given is cell-based. As to the method:
FIG. 8. NanoString analysis of human metabolic pathways after treatment with ICG-001. The profiling panel consists of 770 genes targeting six fundamental themes: neurotransmission, neuron-glia interactions, neuroplasticity, cell structure integrity, neuroinflammation, and metabolism. Each assay also includes six positive and eight negative RNA assay controls, plus ten mRNA housekeeping controls. RNA was hybridized with the Codeset from the gene panel at 65° C. for 16 h. The post-hybridization probe-target mixture were quantified using the nCounter Digital Analyzer, and all data analysis was performed on nSolver (NanoString Technologies) metabolic panel. All raw data was normalized with internal positive and negative controls to eliminate variability unrelated to the samples, then normalized to the selected housekeeping genes using Geometric Means methods.
FIG. 17. (A-F) NanoString analysis of human metabolic pathways after treatment with ICG-001. The profiling panel consisted of 770 genes targeting six fundamental themes: neurotransmission, neuron-glia interactions, neuroplasticity, cell structure integrity, neuroinflammation, and metabolism. Each assay also included six positive and eight negative RNA assay controls and ten mRNA housekeeping controls. RNA was hybridized with the Codeset from the gene panel at 65° C. for 16 h. The post-hybridization probe-target mixture was quantified using the nCounter Digital Analyzer and all data analysis was performed using the nSolver metabolic panel (NanoString Technologies). All raw data was normalized with internal positive and negative controls to eliminate variability unrelated to the samples and then normalized to the selected housekeeping genes using Geometric Means methods. PBT147 and PBT030 cells were treated with ICG-001 at […] for 24 h (data not shown) or 72 h. Total RNA was collected for NanoString analysis from triplicate samples.
PBT147 and PBT030 PBT cells were treated with ICG-001 (0, 5, or 10 μM) for 24-72 h. RNA expression was then analyzed using the NanoString nCounter platform (NanoString Technologies) by digitally detecting and counting in a single reaction without amplification using the NanoString human metabolic panel (City of Hope Molecular Pathology Core) (Geiss, Bumgarner et al. 2008). The data indicates change in a several metabolic markers and antigen presentation increased by PBT cells lines after treatment with ICG-001 at both time points. […] An increased p53 pathway and mitochondrial respiration was also observed at both time points and both cell lines.
ICG-001 Affects PBT tumor metabolism. The N-termini of the Kat3 coactivators, i.e. CBP and p300, provide a highly evolutionarily conserved hub to integrate multiple signaling cascades to coordinate cellular metabolism with the regulation of cellular status and function and specifically that p300/β-Catenin mediated transcription is required to enhance mitochondrial OXPHOS during the initiation of cellular differentiation (Hu et al. 2021, Thomas & Kahn 2016). Therefore, patient-derived GBM cell lines PBT147 and PBT030 lines were treated with ICG-001 (0, 5, or 10 μM) for 24 h or 72 h (FIG. 17 shown differences in both cells lines at 72 h). RNA isolated from the treated PBT cells was analyzed using the NanoString nCounter metabolic panel (NanoString Technologies). This approach digitally detects and counts gene transcripts in a single reaction without amplification (analysis done by City of Hope Molecular Pathology Core) (Geiss et al. 2008).

In data set [3] the test system is T cells derived from 3 donors. As to the kind of experiment: NanoString gene expression analysis of T cells treated with ICG-001. The class given is cell-based. To be noted: ICG-001 2.5 or 5 μM. The procedure:
FIG. 27. T cells treated with ICG001 2.5 and 5 μM for 24 or 72 h. (A) CAR Ts mock and HER2 from one donor and mock CARs derived from two additional donors were plated on 6-well format plates and treated with ICG001 at concentrations 0-5 μM for 24 or 72 h. Cells were collected from each well, counted, and viability was determined. (B, C) NanoString analysis of T cells treated with ICG-001 to determine concentration-dependent metabolic changes. […] (E) Correlation of differential gene expression in all T cell lines combined at concentration of 2.5 and 5 μM.
Antagonism of WNT/CBP/β-catenin signaling effects CAR T cells. Wnt signaling plays critical roles in T cell development and commitment (Li et al. 2019). Thus, the combined data derived from all T cell lines used and compared with untreated controls was analyzed for each T cell line.
However, at a higher concentration of ICG-001, a higher degree of differential gene expression was observed. […]

For data set [4] the following is noted: Tran and Zheng 2017; cited from earlier work.
The mark [5] stands for this setting: ICG-001 0, 5, or 10 μM, 24 h or 72 h.
Where [6] appears, read: ICG-001 0, 5, or 10 μM, both time points.

As for `O=C1[C@H](Cc2ccc(O)cc2)N2C(=O)CCN(C(=O)NCc3ccccc3)[C@H]2CN1Cc1cccc2ccccc12` [ICG-001], the “expression of Wnt/p300/β-catenin target gene EphB2” value in data set [1] is on record as “upregulating”. The “expression of Wnt/CBP/β-catenin target gene BIRC5/Survivin” value in data set [1] (ICG-001 0-10 μM) is given as “selectively downregulated”. In data set [2] (setting [5]), the cell cycle-related genes result is “Downregulation; also recorded: cell cycle decrease”; the “glutamine metabolism, ROS, mTOR, and p53 signaling” value is “Upregulation”; the glycolysis entry is “decrease”; the mitochondrial respiration entry was “increased”. Also, in data set [2] (setting [6]), the antigen presentation entry is “increased” and the immunosuppressive tryptophan/kynurenine metabolism result is given as “concomitant decrease”. Moreover, the fatty acid oxidation result in data set [2] (all treated cell lines, all timepoints) is “decreased in all treated cell lines at all timepoints; also recorded: decreased in all treated cells and all timepoints”. Also, the T cell differentiation result in data set [3] is “directed T cell differentiation into multiple types of effector and memory T cells”. In data set [3] (24 or 72 h), the “expression of DPP4, CD48, CEBPB, B2M, ICOSLG, CD81, CXCR4, XBP1, NFIL3, and others in T cells” value is recorded as “upregulation of key genes”. For the same compound, the blood-brain barrier crossing result in data set [4] is recorded as “cross the blood-brain barrier”.
